Measured values published in patent US12304970B2, “Nuclear localization signals, compositions formed therefrom, and methods of use thereof for delivery of cargo to the nucleus” (Yale University, priority 2018, dated 2025).
“Also recorded” adds a separate entry of the source. Where two headings read alike, the source gives them in different places. Values belong to the molecule of their own block, whether it stands above or below them.

Tests used:
A549 lung cancer cells = assay: Protein L immunostain of variant 13 nuclear penetration with nuclear import inhibitors, A549 cells; format: cell-based; conditions: 10 μM variant 13 co-incubated with 0, 10, 25, or 50 μM inhibitor
Method: (§1) For all experiments, cells were cultivated overnight to allow for attachment, followed by pretreatment with either control medium (absence of inhibitor), or medium containing inhibitor for durations previously-reported in the literature (see Table 1, below).
(§2) For endocytosis inhibition experiments, cells were cultivated in serum-free medium containing 1% v/v BSA to deplete endogenous serum levels. Following preincubation with inhibitors, cells were treated with either control medium or 10 μM variant 13, and the same dose of small molecule inhibitor for a further 30 minutes. For all experiments, cells were washed thrice, followed by immediate fixation with pre-chilled ice-cold ethanol. Subsequently, treated cells were probed using a protein L immunodetection approach to probe variant 13 nuclear uptake (Rattray et al., Biochem Biophys Res Commun 496, 858-864 (2018)). All monolayers were immediately imaged following color development on an Evos Fl microscope.
(§3) DLD-1 and A549 cells were treated with 10 μM variant 13 co-incubated with 0, 10, 25, or 50 μM concentrations of ivermectin. Relative intensity of protein L nuclear staining as compared to amount of stain in cells treated without ivermectin was also quantified by ImageJ.
(§4) DLD-1 cells and A549 cells were treated with 10 μM variant 13 co-incubated with 0, 10, 25, or 50 μM concentrations of importazole and then immunostained for protein L.
(§5) DLD-1 cells and A549 cells were treated with 10 μM variant 13 co-incubated with 0, 10, 25, or 50 μM concentrations of mifepristone and then immunostained for protein L.

DLD1 cells [1] = assay: SLE sera nuclear import with nuclear import inhibitors; format: cell-based; conditions: pre- and co-treatment with inhibitor
Method: DLD1 cells were pre-treated with either control media, or media containing nuclear import inhibitors for four hours. Subsequent co-treatment with inhibitor and patient SLE serum (diluted 1:50) was performed for one hour at 37° C. Following treatment, cells were fixed, blocked and probed with an alkaline-phosphatase anti-human IgG primary antibody overnight (Fisher Scientific). Cell monolayers were washed, and color developed using NBT/BCIP reagent (Fisher Scientific) for the same duration across all experiments. Following chromogen color development, all monolayers were washed, and brightfield images acquired immediately on an Evos Fl microscope.

DLD1 colon cancer cells = assay: Protein L immunostain of variant 13 nuclear penetration with nuclear import inhibitors, DLD1 cells; format: cell-based; conditions: 10 μM variant 13 co-incubated with 0, 10, 25, or 50 μM inhibitor
Method: as §1, §2, §3, §4, §5

DLD1 cancer cells = assay: Uptake of rhodamine-labeled variant 13 into live DLD1 cells; format: cell-based; conditions: 50 μM importazole
Method: Live DLD1 cancer cells were treated with control or rhodamine-labeled variant 13 (Rh-variant 13)+/−50 μM importazole and were then visualized under light and fluorescence microscopy.

DLD1 cells [2] = assay: Nuclear penetration of scleroderma autoantibody SSC and effect of ivermectin; format: cell-based
Excerpt: In addition to SLE, cell-penetrating autoantibodies are detected in other autoimmune diseases such as scleroderma. […] SSC was expressed in and purified from HEK293T cells. […] Ivermectin inhibited the nuclear uptake of SSC, confirming that ivermectin can modulate the nuclear-penetrating activity of autoantibodies from multiple autoimmune diseases.

MCF7 breast cancer cells = assay: Uptake of rhodamine-labeled variant 13 into live MCF7 cells; format: cell-based; conditions: 50 μM ivermectin
Method: Live MCF7 breast cancer cells were treated with control or rhodamine-labeled variant 13 (Rh-variant 13)+/−50 μM ivermectin and were then visualized under light and fluorescence microscopy. Ivermectin inhibited cellular/nuclear uptake of Rh-variant 13.

cell nuclei [3] = conditions: known anti-DNA autoantibodies; cited from earlier work
cell nuclei [4] = assay: Nuclear penetration of humanized 3E10 variants compared with 3E10 (D31N) di-scFv; format: cell-based; conditions: for Nuclear localizing?: humanized 3E10 variants
Excerpt: A range of humanized 3E10 variants were generated with subtle differences in framework and CDR sequences.

Importin-β1 (KPNB1) = molecular target: T1, Importin-β1 (KPNB1) (Homo sapiens, UniProt Q14974); assay: Variant 13 nuclear penetration after siRNA knockdown of importin β1 in DLD1 cells; format: cell-based; conditions: 10 μM variant 13 for 30 minutes, n=100 cells per treatment
T1 construct: endogenous in cells; host or cells: DLD1 cells
T1 sequence (Q14974 whole entry): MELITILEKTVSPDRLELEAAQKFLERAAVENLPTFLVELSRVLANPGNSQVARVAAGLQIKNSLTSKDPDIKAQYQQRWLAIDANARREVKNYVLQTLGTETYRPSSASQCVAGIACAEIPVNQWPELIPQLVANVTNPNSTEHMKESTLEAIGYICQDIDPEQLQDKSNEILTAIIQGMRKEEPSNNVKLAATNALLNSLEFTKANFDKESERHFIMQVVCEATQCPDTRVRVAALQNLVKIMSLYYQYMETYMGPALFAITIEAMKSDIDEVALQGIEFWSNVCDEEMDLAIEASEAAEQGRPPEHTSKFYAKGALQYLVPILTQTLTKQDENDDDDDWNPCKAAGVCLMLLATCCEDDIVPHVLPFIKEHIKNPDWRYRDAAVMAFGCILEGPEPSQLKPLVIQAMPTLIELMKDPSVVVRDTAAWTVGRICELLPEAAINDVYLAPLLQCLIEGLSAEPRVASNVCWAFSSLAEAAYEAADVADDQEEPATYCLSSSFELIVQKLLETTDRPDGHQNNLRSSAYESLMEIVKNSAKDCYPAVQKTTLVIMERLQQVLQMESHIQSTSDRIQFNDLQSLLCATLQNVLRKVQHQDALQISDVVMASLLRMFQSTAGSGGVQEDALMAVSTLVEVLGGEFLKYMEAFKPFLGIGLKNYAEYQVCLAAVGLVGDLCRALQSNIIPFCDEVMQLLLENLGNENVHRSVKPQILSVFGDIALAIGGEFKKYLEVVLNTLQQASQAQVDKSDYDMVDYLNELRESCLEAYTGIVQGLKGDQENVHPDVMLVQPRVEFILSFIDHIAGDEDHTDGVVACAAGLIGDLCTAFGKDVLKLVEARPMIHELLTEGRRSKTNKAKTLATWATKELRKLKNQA
Method: Importin-β1 (KPNB1) knockdown in DLD1 cells were generated using control (D-001206-14-05) and KPNB1 (importin β1, M-017523-01-0005) siRNA (Dharmacon). DLD1 cells were seeded into 24-well (western blot) or 96-well plates (cell penetration assays) overnight. Cell monolayers were transfected with siRNA, followed by media replacement at 24 hours, and evaluation at multiple time points post-transfection. Importin (31 expression was then evaluated by western blotting of cell lysates.
Knockdown of importin β1 in DLD1 cells by siRNA was next performed to further probe the role of this pathway in modulating variant 13 nuclear localization.

Molecule: CC(Nc1nc(N2CCCC2)nc2ccccc12)c1ccccc1 (stereo not drawn) [importazole]
nuclear penetration by variant 13 (A549 lung cancer cells): reduction
nuclear uptake of ANAs in SLE-19 (DLD1 cells [1]): inhibit nuclear uptake of ANAs in SLE-19 in a dose-dependent manner
nuclear penetration by variant 13 (DLD1 colon cancer cells): reduction
nuclear uptake of rhodamine-labeled variant 13 (DLD1 cancer cells): inhibited

Molecule: CC#C[C@]1(O)CC[C@H]2[C@@H]3CCC4=CC(=O)CCC4=C3[C@@H](c3ccc(N(C)C)cc3)C[C@@]21C [mifepristone]
nuclear penetration by variant 13 (A549 lung cancer cells): reduction
nuclear uptake of ANAs in SLE-19 (DLD1 cells [1]): inhibit nuclear uptake of ANAs in SLE-19 in a dose-dependent manner
nuclear penetration by variant 13 (DLD1 colon cancer cells): reduction

Molecule: ivermectin
nuclear penetration by variant 13 (A549 lung cancer cells): dose-dependent reduction
nuclear uptake of SSC (DLD1 cells [2]): inhibited
cellular/nuclear uptake of rhodamine-labeled variant 13 (MCF7 breast cancer cells): inhibited
nuclear staining / nuclear uptake of ANAs in SLE-4, 8, 9, and 19 (DLD1 cells [1]; serum diluted 1:50): reduced the nuclear staining; also recorded: blocked
nuclear penetration by variant 13 (DLD1 colon cancer cells): dose-dependent reduction

Molecule: 3E10: murine lupus anti-DNA monoclonal antibody produced by ATCC Accession No. PTA 2439 hybridoma [Variant 3E10]
Nuclear localizing? (cell nuclei [3]): Yes

B1: variant 10: humanized 3E10 variant, SEQ ID NOS: 14, 22, and 32 (protein)
chain 1: EVQLVESGGGLVQPGGSLRLSCAASGFTFSNYGMHWVRQAPGKGLEWVSYISSSSSTIYYADSVKGRFTISRDNAKNSLYLQMNSLRAEDTAVYYCARRGLLLDYWGQGTTVTVSS
chain 2: DIQMTQSPSSLSASVGDRVTITCRASKSVSTSSYSYMHWYQQKPGKAPKLLIKYASYLESGVPSRFSGSGSGTDFTLTISSLQPEDFATYYCQHSREFPWTFGQGTKVEIK
chain 3: DIQMTQSPSSLSASVGDRVTITCRASKSVSTSSYSYMHWYQQKPGKAPKLLIKYASYLESGVPSRFSGSGSGTDFTLTISSLQPEDFATYYCQHSREFPWTFGQGTKVEIKRADAAPGGGGSGGGGSGGGGSEVQLVESGGGLVQPGGSLRLSCAASGFTFSNYGMHWVRQAPGKGLEWVSYISSSSSTIYYADSVKGRFTISRDNAKNSLYLQMNSLRAEDTAVYYCARRGLLLDYWGQGTTVTVSSASTKGPSVFPLAPLESSGSDIQMTQSPSSLSASVGDRVTITCRASKSVSTSSYSYMHWYQQKPGKAPKLLIKYASYLESGVPSRFSGSGSGTDFTLTISSLQPEDFATYYCQHSREFPWTFGQGTKVEIKRADAAPGGGGSGGGGSGGGGSEVQLVESGGGLVQPGGSLRLSCAASGFTFSNYGMHWVRQAPGKGLEWVSYISSSSSTIYYADSVKGRFTISRDNAKNSLYLQMNSLRAEDTAVYYCARRGLLLDYWGQGTTVTVSS
nuclear penetration compared to murine 3E10 (D31N) di-scFv prototype (cell nuclei [4]): penetrated nuclei very well
Nuclear localizing? (cell nuclei [4]): Yes

variant 13 nuclear signal in importin β1 knockdown cells compared to cells with intact importin β1 (Importin-β1 (KPNB1)): significant reduction
B2: variant 13: humanized 3E10 variant, SEQ ID NOS: 17, 23, and 35, expressed in CHO cells (protein)
chain 1: EVQLVESGGGLVQPGGSLRLSCAASGFTFSNYGMHWVRQAPGKGLEWVSYISSGSSTIYYADSVKGRFTISRDNAKNSLYLQMNSLRAEDTAVYYCARRGLLLDYWGQGTTVTVSS
chain 2: DIQMTQSPSSLSASLGDRATITCRASKTVSTSSYSYMHWYQQKPGQPPKLLIKYASYLESGVPSRFSGSGSGTDFTLTISSLQPEDAATYYCQHSREFPWTFGGGTKVEIK
chain 3: DIQMTQSPSSLSASLGDRATITCRASKTVSTSSYSYMHWYQQKPGQPPKLLIKYASYLESGVPSRFSGSGSGTDFTLTISSLQPEDAATYYCQHSREFPWTFGGGTKVEIKRADAAPGGGGSGGGGSGGGGSEVQLVESGGGLVQPGGSLRLSCAASGFTFSNYGMHWVRQAPGKGLEWVSYISSGSSTIYYADSVKGRFTISRDNAKNSLYLQMNSLRAEDTAVYYCARRGLLLDYWGQGTTVTVSSASTKGPSVFPLAPLESSGSDIQMTQSPSSLSASLGDRATITCRASKTVSTSSYSYMHWYQQKPGQPPKLLIKYASYLESGVPSRFSGSGSGTDFTLTISSLQPEDAATYYCQHSREFPWTFGGGTKVEIKRADAAPGGGGSGGGGSGGGGSEVQLVESGGGLVQPGGSLRLSCAASGFTFSNYGMHWVRQAPGKGLEWVSYISSGSSTIYYADSVKGRFTISRDNAKNSLYLQMNSLRAEDTAVYYCARRGLLLDYWGQGTTVTVSS
nuclear penetration compared to murine 3E10 (D31N) di-scFv prototype (cell nuclei [4]): penetrated nuclei very well
Nuclear localizing? (cell nuclei [4]): Yes
